Where “and” joins values, the source holds several entries; their conditions need not be identical. Equal values may be shown once. Entries after “also recorded” stand apart in the source; their conditions may differ.
Assays:
acne vulgaris = experiment: Topical treatment of acne in human volunteers; type: in vivo; conditions: for Recovery Time: topical cream, per subject
Procedure: In this example, human subjects were successfully treated for acne by topical administration of a cream containing the compound JC15 or JC9, which were shown in the previous examples to ameliorate the effects of the androgen receptor-activated pathway, specifically by inducing degradation of the androgen receptor. A basic carrier formulation was prepared by mixing two solutions: (1) a water-based solution containing aristoflex avc, Osmocide, Tween 20, and water; and (2) an oil-based solution containing isopropyl myristate, coconut dienthanolamine, ethylparaben, isobutylparaben, methylparaben, and propylparaben. The test compounds (JC15 or JC9) were added to the cream to a final concentration of 1 to 2.5 micromolar, as needed.
Male and female human volunteers ranging in age from 15 years to 52 years were treated by topical application of the test compounds to the acne-affected skin. […] The results are given in Table 1, and a representative result (photo pictures) from one volunteer is depicted in FIG. 7.

[1] = molecular target: T1, LNCaP androgen receptor (endogenous mutant AR) (Homo sapiens, UniProt P10275, T878A); experiment: Androgen receptor transactivation assay in LNCaP cells (MMTV-luciferase reporter); type: cell-based; conditions: DHT 1 nM, JC9 0 uM to 7.5 uM
T1 construct: LNCaP cells express an endogenous mutant AR that is found in prostate cancer patients; host or cells: LNCaP
T1 sequence (P10275 1-920 T878A): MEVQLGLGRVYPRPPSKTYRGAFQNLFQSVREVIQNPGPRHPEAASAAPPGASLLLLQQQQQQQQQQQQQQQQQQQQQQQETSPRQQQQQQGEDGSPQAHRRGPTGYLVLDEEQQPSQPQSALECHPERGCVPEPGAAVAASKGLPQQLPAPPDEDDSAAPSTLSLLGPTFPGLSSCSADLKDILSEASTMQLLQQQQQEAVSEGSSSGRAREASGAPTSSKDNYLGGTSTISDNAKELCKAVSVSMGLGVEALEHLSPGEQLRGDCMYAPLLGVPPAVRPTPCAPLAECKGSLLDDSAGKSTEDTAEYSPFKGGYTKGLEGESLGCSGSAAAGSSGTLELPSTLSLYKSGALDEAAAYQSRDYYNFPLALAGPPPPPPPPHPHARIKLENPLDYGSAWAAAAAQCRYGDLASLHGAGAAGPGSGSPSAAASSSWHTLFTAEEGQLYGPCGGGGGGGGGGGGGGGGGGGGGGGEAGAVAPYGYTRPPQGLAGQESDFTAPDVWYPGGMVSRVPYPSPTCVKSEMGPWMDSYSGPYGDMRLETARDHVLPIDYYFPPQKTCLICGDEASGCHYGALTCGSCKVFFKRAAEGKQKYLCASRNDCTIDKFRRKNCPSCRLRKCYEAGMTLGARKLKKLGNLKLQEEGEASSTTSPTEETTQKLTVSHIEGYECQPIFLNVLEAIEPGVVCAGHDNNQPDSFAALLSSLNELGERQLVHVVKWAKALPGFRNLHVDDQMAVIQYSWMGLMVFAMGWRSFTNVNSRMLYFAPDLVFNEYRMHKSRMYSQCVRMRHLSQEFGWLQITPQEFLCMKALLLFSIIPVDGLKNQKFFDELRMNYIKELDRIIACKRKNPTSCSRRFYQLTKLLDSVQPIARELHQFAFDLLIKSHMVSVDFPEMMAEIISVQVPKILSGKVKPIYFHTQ
Description: Prostate cancer cells, non-prostate tumor cells, and normal cells can be used in this transient transfection assay, which measures transactivation of the androgen receptor (AR) and can be used to detect a reduction of AR activity caused by AR degradation. In the provided non-limiting example, CV-1 (green monkey kidney cells lacking an androgen receptor) and LNCaP cells (prostate cancer cells containing an endogenous mutant AR), were transfected with a plasmid carrying an androgen response element (ARE) and a reporter gene.
Both the CV-1 and LNCaP cells (obtained from ATCC, Manassas, Va.) were maintained in […] medium supplemented with penicillin (25 units/millilter), streptomycin (25 micrograms/milliliter), and 10% heat-inactivated fetal bovine serum (FBS). Cells were plated in 35-millimeter dishes at a concentration of 1-2×10^5cells/well and cultured at 37 degrees Celsius in an incubator under a 5% carbon dioxide atmosphere. […] The cells were lysed, and luciferase activity of the lysate was measured with the Dual-Luciferase Reporter Assay System (Promega, Madison, Wis.). Data were expressed as relative luciferase activity normalized to the internal luciferase positive control. […]

sebaceous glands = experiment: Reduction of sebaceous glands in Fuzzy rats by topical cream; type: in vivo; conditions: once daily; for size of the sebaceous glandular lobe and duct: male Fuzzy rats, 8 weeks
Description: In this example, the test compounds JC15 and JC9, which were shown in the previous examples to ameliorate the effects of the androgen receptor-activated pathway, specifically by inducing degradation of the androgen receptor, and to be effective in treating acne in human subjects, were used to reduce sebaceous glandular lobe size in an animal model. Effective reduction of sebaceous glands by topical treatment may be useful in treating skin conditions such as acne. Fuzzy rats were used in this animal model as described in Ye et al. (1997) Skin Pharmacol., 10:10288-10297, which is incorporated by reference in its entirety herein.
Topical creams were prepared as described in EXAMPLE 6. The test creams contained JC9 ([…]) or JC15 (1 micromolar); a control cream with only vehicle added was also prepared. The test or control creams were applied using a cotton swab to the dorsal skin of the animal, once daily, over a period of 8 weeks. Animals were then sacrificed and skin samples collected for microscopic examination. Commercial hair remover was applied to the dorsal surface of the euthanized animals. After 5 minutes, the hair remover and hairs were removed with a tissue. The area was thoroughly cleaned with 75% isopropyl alcohol. A 4-millimeter skin punch was used to remove skin tissue samples, which were incubated for 2 to 3 hours in a ethylenediaminetetraacetate (EDTA, 17 millimolar), sodium phosphate (0.1 molar, pH 7.4) solution at 37 degrees Celsius. The epidermis was carefully separated from the dermis and stored in 10% phosphate-buffered formalin. Prior to microscopic examination, the samples were mounted on glass slides. Areas of well-preserved glandular lobules were selected for microscopic imaging. Edges of the glandular lobes were traced and the areas of the traced lobes obtained with Image J software (National Institutes of Health).

Row | Compound | Recovery Time (acne vulgaris; 1 micromolar, four times a day) | Recovery Time (acne vulgaris; 1 micromolar, twice a day) | Recovery Time (acne vulgaris; 2.5 micromolar, twice a day) | LNCaP androgen receptor transactivation (relative luciferase activity) [1] | time within which bands of sebaceous glands were reduced (sebaceous glands; JC9 25 micromolar cream, topical) | size of the sebaceous glandular lobe and duct (sebaceous glands; JC9 25 micromolar cream) | skin condition of forehead (photographs) (acne vulgaris; JC15 1 micromolar in carrier base, acne-affected volunteer, one month topical treatment) | Recovery Time (acne vulgaris; 1 micromolar, as often as needed, listed as ASCJ15) | Recovery Time (acne vulgaris; 1 micromolar, twice a day, listed as ASCJ15) | size of the sebaceous glandular lobe and duct (sebaceous glands; JC15 1 micromolar cream)
1 | COc1ccc(C=CC(=O)C=C(O)C=Cc2ccc(OC)c(OC)c2)cc1OC [JC9, 5-hydroxy-1,7-bis(3,4-dimethoxyphenyl)-1,4,6-heptatrien-3-one] | 1 week | 2 weeks | 1 week | dose-dependent inhibition of LNCaP androgen receptor transactivation | 4-5 weeks | reduction in the size of the sebaceous glandular lobe and duct; also recorded: significantly reduced the size of lobe and ducts of sebaceous glands |  |  |  | 
2 | CCOC(=O)CCC(C(=O)C=Cc1ccc(O)c(OC)c1)C(=O)C=Cc1ccc(O)c(OC)c1 (stereo not shown) [JC15, 7-(4-hydroxy-3-methoxyphenyl)-4-[3-(4-hydroxy-3-methoxyphenyl)acryloyl]-5-oxo-hept-6-enoic acid ethyl ester] |  |  |  |  |  |  | visible improvement to skin condition | 1 week weeks (2×) and 2 weeks | 2 weeks (2×) and 1 week weeks | reduction in the size of the sebaceous glandular lobe and duct; also recorded: approximately equivalent to the decrease caused by castration
